± gives the expanded uncertainty stated by the source.
test: molar enthalpy of vaporization or sublimation; details: 298.15 K; Liquid; Calvet microcalorimetry

| SMILES | molar enthalpy [kcal/mol] |
| --- | --- |
| Cc1ccsc1C#N [3-methylthiophene-2-carbonitrile] | 13 ± 0.574 |
| N#Cc1ccsc1 [3-thiophenecarbonitrile] | 12.3 ± 0.908 |
| N#CCc1ccsc1 [3-thiopheneacetonitrile] | 14.6 ± 0.621 |
| N#Cc1cccs1 [2-cyanothiophene] | 11.8 ± 0.526 |
| N#CCc1cccs1 [2-thiopheneacetonitrile] | 14.5 ± 0.621 |
